{"source": "patent US10815274B2", "about": "“Immunogenic WT-1 peptides and methods of use thereof” (Memorial Sloan Kettering Cancer Center, priority 2012, dated 2020)", "key": {"WT1- autologous APC": {"test_system": "WT1- autologous APC", "assay": "Cr51 release assay, cytotoxic CTL response vs unmodified autologous APC", "type": "cell-based, human", "conditions": "50:1 E:T"}, "[1]": {"test_system": "WT1- allo APC with restricting HLA allele", "assay": "Cr51 release assay, cytotoxic CTL response vs unloaded allogeneic APC sharing restricting HLA allele", "type": "cell-based, human", "conditions": "50:1 E:T"}, "[2]": {"test_system": "WT1+ allo APC with restricting HLA allele loaded with WT1 peptide", "assay": "Cr51 release assay, cytotoxic CTL response vs peptide loaded allogeneic APC sharing restricting HLA allele (HLA restriction)", "conditions": "for Cytotoxic CTL response, % vs WT1+ allo APC with restricting HLA allele loaded with WT1 peptide: 50:1 E:T"}, "[3]": {"test_system": "WT1 peptide loaded autologous APC", "assay": "Cr51 release assay, cytotoxic CTL response vs peptide loaded autologous APC", "type": "cell-based, human", "conditions": "50:1 E:T"}, "WT1- leukemia": {"test_system": "WT1- leukemia", "assay": "Cr51 release assay, cytotoxic CTL response vs WT1- leukemia", "type": "cell-based, human", "conditions": "HLA allele B3501; 50:1 E:T", "excerpt": "(§1) Twenty-four primary leukemic cells and 1 leukemic cell line were characterized for their expression of WT1 by intracellular FACS staining using murine anti-human WT1 monoclonal antibodies (Neomarkers, Fremont, Calif.) as previously described (32,38) The WT1+ leukemias included blast cells from 11 primary AMLs, 3 primary ALLs and 1B-cell precursor ALL cell line. Ten WT1-leukemias, were used as controls, and included 3 B-cell precursor ALLs and 7 AMLs."}, "WT1+ leukemia": {"test_system": "WT1+ leukemia", "assay": "Cr51 release assay, cytotoxic CTL response vs WT1+ leukemia expressing restricting HLA allele", "type": "cell-based, human", "conditions": "HLA allele B3501; 50:1 E:T", "excerpt": "as §1\nPHA blasts were not available from every patient that provided leukemia blasts for this study."}}, "note": "Where a SMILES comes first, the peptide text is derived from it.", "data": [{"compound": "CC(C)[C@H](NC(=O)[C@@H](NC(=O)[C@H](CO)NC(=O)[C@H](Cc1ccc(O)cc1)NC(=O)CNC(=O)[C@H](CCC(N)=O)NC(=O)[C@@H](N)CC(N)=O)[C@@H](C)O)C(=O)N[C@H](C(=O)N[C@@H](Cc1ccccc1)C(=O)O)[C@@H](C)O", "note": "[SEQ ID NO: 163] (H-NQGYSTVTF-OH; N-terminus and C-terminus assumed)", "values": [{"measurement": "Cytotoxic CTL response, % vs WT1- autologous APC", "setting": "WT1- autologous APC; HLA allele A0101", "value": 2, "unit": "%"}, {"measurement": "Cytotoxic CTL response, % vs WT1- allo APC with restricting HLA allele", "setting": "[1]; HLA allele A0101", "value": 4, "unit": "%"}, {"measurement": "Cytotoxic CTL response, % vs WT1+ allo APC with restricting HLA allele loaded with WT1 peptide", "setting": "[2]; HLA allele A0101", "value": 15, "unit": "%"}, {"measurement": "Cytotoxic CTL response, % vs WT1 peptide loaded autologous APC", "setting": "[3]; HLA allele A0101", "value": 19, "unit": "%"}]}, {"compound": "C[C@H](NC(=O)[C@H](C)NC(=O)[C@H](Cc1c[nH]cn1)NC(=O)[C@@H](N)Cc1c[nH]cn1)C(=O)N[C@@H](CCC(N)=O)C(=O)N[C@@H](Cc1ccccc1)C(=O)N1CCC[C@H]1C(=O)N[C@@H](CC(N)=O)C(=O)N[C@@H](Cc1c[nH]cn1)C(=O)O", "note": "[SEQ ID NO: 164] (H-HHAAQFPNH-OH; N-terminus and C-terminus assumed)", "values": [{"measurement": "Cytotoxic CTL response, % vs WT1- autologous APC", "setting": "WT1- autologous APC; HLA allele B3801", "value": 0, "unit": "%"}, {"measurement": "Cytotoxic CTL response, % vs WT1- allo APC with restricting HLA allele", "setting": "[1]; HLA allele B3801", "value": 1, "unit": "%"}, {"measurement": "Cytotoxic CTL response, % vs WT1+ allo APC with restricting HLA allele loaded with WT1 peptide", "setting": "[2]; HLA allele B3801", "value": 17, "unit": "%"}, {"measurement": "Cytotoxic CTL response, % vs WT1 peptide loaded autologous APC", "setting": "[3]; HLA allele B3801", "value": 26, "unit": "%"}]}, {"compound": "CSCC[C@H](NC(=O)[C@@H]1CCCN1C(=O)[C@H](CC(=O)O)NC(=O)[C@H](CCC(=O)O)NC(=O)[C@H](Cc1c[nH]cn1)NC(=O)[C@H](CCCCN)NC(=O)[C@H](Cc1ccccc1)NC(=O)[C@H](CO)NC(=O)[C@@H](N)Cc1c[nH]cn1)C(=O)O", "note": "[SEQ ID NO: 165] (H-HSFKHEDPM-OH; N-terminus and C-terminus assumed)", "values": [{"measurement": "Cytotoxic CTL response, % vs WT1- autologous APC", "setting": "WT1- autologous APC; HLA allele B3501", "value": 0, "unit": "%"}, {"measurement": "Cytotoxic CTL response, % vs WT1- allo APC with restricting HLA allele", "setting": "[1]; HLA allele B3501", "value": 3, "unit": "%"}, {"measurement": "Cytotoxic CTL response, % vs WT1- leukemia", "setting": "WT1- leukemia", "value": 5, "unit": "%"}, {"measurement": "Cytotoxic CTL response, % vs WT1+ allo APC with restricting HLA allele loaded with WT1 peptide", "setting": "[2]; HLA allele B3501", "value": 63, "unit": "%"}, {"measurement": "Cytotoxic activity against panel of allogeneic CAMs loaded with peptide, each sharing one HLA allele", "setting": "[2]; peptide loaded autologous targets and targets expressing HLA-B3501, not targets sharing other alleles", "value": "selectively lysed"}, {"measurement": "Cytotoxic CTL response, % vs WT1+ leukemia", "setting": "WT1+ leukemia", "value": 45, "unit": "%"}, {"measurement": "Cytotoxic CTL response, % vs WT1 peptide loaded autologous APC", "setting": "[3]; HLA allele B3501", "value": 50, "unit": "%"}]}, {"compound": "C[C@@H](O)[C@H](NC(=O)[C@H](CS)NC(=O)[C@H](CO)NC(=O)[C@H](CC(=O)O)NC(=O)[C@@H](NC(=O)[C@@H]1CCCN1C(=O)[C@@H](NC(=O)[C@H](Cc1c[nH]cn1)NC(=O)[C@@H](N)CS)[C@@H](C)O)[C@@H](C)O)C(=O)O", "note": "[SEQ ID NO: 166] (H-CHTPTDSCT-OH)", "values": [{"measurement": "Cytotoxic CTL response, % vs WT1- autologous APC", "setting": "WT1- autologous APC; HLA allele B4402", "value": 8, "unit": "%"}, {"measurement": "Cytotoxic CTL response, % vs WT1- allo APC with restricting HLA allele", "setting": "[1]; HLA allele B4402", "value": 7, "unit": "%"}, {"measurement": "Cytotoxic CTL response, % vs WT1+ allo APC with restricting HLA allele loaded with WT1 peptide", "setting": "[2]; HLA allele B4402", "value": 19, "unit": "%"}, {"measurement": "Cytotoxic CTL response, % vs WT1 peptide loaded autologous APC", "setting": "[3]; HLA allele B4402", "value": 37, "unit": "%"}]}, {"compound": "CC(C)C[C@H](NC(=O)[C@@H](NC(=O)[C@H](C)NC(=O)CNC(=O)[C@@H](N)CC(C)C)[C@@H](C)O)C(=O)N[C@@H](CCCCN)C(=O)NCC(=O)N[C@H](C(=O)N[C@@H](C)C(=O)N[C@@H](C)C(=O)O)C(C)C", "note": "[SEQ ID NO: 176] (H-LGATLKGVAA-OH; N-terminus and C-terminus assumed)", "values": [{"measurement": "Cytotoxic CTL response, % vs WT1- autologous APC", "setting": "WT1- autologous APC; HLA allele A0203", "value": 0, "unit": "%"}, {"measurement": "Cytotoxic CTL response, % vs WT1- allo APC with restricting HLA allele", "setting": "[1]; HLA allele A0203", "value": 0, "unit": "%"}, {"measurement": "Cytotoxic CTL response, % vs WT1+ allo APC with restricting HLA allele loaded with WT1 peptide", "setting": "[2]; HLA allele A0203", "value": 21, "unit": "%"}, {"measurement": "Cytotoxic CTL response, % vs WT1 peptide loaded autologous APC", "setting": "[3]; HLA allele A0203", "value": 35, "unit": "%"}]}, {"compound": "CC(C)C[C@H](NC(=O)[C@@H](N)[C@@H](C)O)C(=O)NCC(=O)N[C@H](C(=O)N[C@@H](C)C(=O)N[C@@H](C)C(=O)NCC(=O)N[C@@H](CO)C(=O)O)C(C)C", "note": "[SEQ ID NO: 177] (H-TLGVAAGS-OH; N-terminus and C-terminus assumed)", "values": [{"measurement": "Cytotoxic CTL response, % vs WT1- autologous APC", "setting": "WT1- autologous APC; HLA allele A6901", "value": 4, "unit": "%"}, {"measurement": "Cytotoxic CTL response, % vs WT1- allo APC with restricting HLA allele", "setting": "[1]; HLA allele A6901", "value": 0, "unit": "%"}, {"measurement": "Cytotoxic CTL response, % vs WT1+ allo APC with restricting HLA allele loaded with WT1 peptide", "setting": "[2]; HLA allele A6901", "value": 57, "unit": "%"}, {"measurement": "Cytotoxic CTL response, % vs WT1 peptide loaded autologous APC", "setting": "[3]; HLA allele A6901", "value": 80, "unit": "%"}]}, {"compound": "CC(C)C[C@H](NC(=O)[C@H](Cc1c[nH]cn1)NC(=O)[C@H](CC(=O)O)NC(=O)[C@H](CO)NC(=O)[C@H](CCCNC(=N)N)NC(=O)[C@H](CO)NC(=O)[C@H](Cc1ccccc1)NC(=O)[C@H](CCCCN)NC(=O)[C@@H](N)CCCNC(=N)N)C(=O)O", "note": "[SEQ ID NO: 181] (H-RKFSRSDHL-OH; N-terminus and C-terminus assumed)", "values": [{"measurement": "Cytotoxic CTL response, % vs WT1- autologous APC", "setting": "WT1- autologous APC; HLA allele A0201", "value": 3, "unit": "%"}, {"measurement": "Cytotoxic CTL response, % vs WT1- allo APC with restricting HLA allele", "setting": "[1]; HLA allele A0201", "value": 1, "unit": "%"}, {"measurement": "Cytotoxic CTL response, % vs WT1+ allo APC with restricting HLA allele loaded with WT1 peptide", "setting": "[2]; HLA allele A0201", "value": 27, "unit": "%"}, {"measurement": "Cytotoxic CTL response, % vs WT1 peptide loaded autologous APC", "setting": "[3]; HLA allele A0201", "value": 40, "unit": "%"}]}]}
